pIC50: −log10 of the molar value.
Biological target: T1, recombinant, N-terminally GST-tagged ATAD2 bromodomain amino acids 981-1108 (Homo sapiens, UniProt Q6PL18)
T1 construct: ATAD2 bromodomain amino acids 981-1108; made in house; host or cells: E. coli
T1 sequence (Q6PL18 981-1108): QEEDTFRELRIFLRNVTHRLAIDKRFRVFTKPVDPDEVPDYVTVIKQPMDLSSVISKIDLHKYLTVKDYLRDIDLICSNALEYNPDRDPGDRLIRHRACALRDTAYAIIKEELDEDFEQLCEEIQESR
Assay: TR-FRET assay: disruption of the interaction between ATAD2 and acetylated Histone H4 (Ac-H4) peptide
Assay type: binding
Settings: inhibition of ATAD2/Ac-H4 complex formation; 10 nM ATAD2, 50 nM Ac-H4 peptide
Excerpt: The ability of the compounds described in the present invention to disrupt the interaction between ATAD2 and acetylated Histone H4 (Ac-H4) was used as quantitative measure of their ATAD2-binding affinities.
To this end a TR-FRET assay which detects the binding of an Ac-H4-derived synthetic peptide (purchased from e.g. Biosyntan (Berlin, Germany)) of sequence HSGRGKGGGGKGLGK(Ac)GGAKRHRK-Biotin to recombinant, N-terminally GST-tagged ATAD2 bromodomain amino acids 981-1108. The protein was produced in-house via E. coli expression followed by GSH-Sepharose affinity- and Superdex S200-size exclusion chromatography purification.
Typically, 11 different concentrations of each compound (0.1 nM, 0.33 nM, 1.1 nM, 3.8 nM, 13 nM, 44 nM, 0.15 μM, 0.51 μM, 1.7 μM, 5.9 μM and 20 μM) were tested in duplicate within the same microtiter plate. To this end, 100-fold concentrated compound solutions (in DMSO) were previously prepared with a Precision Pippeting System (BioTek) by serial dilution (1:3.4) of 2 mM stocks in clear, low-volume 384-well microtiter source plates (Greiner Bio-One). Subsequently, 50 nl of compounds were transferred into black, low-volume test plates from the same supplier using a Hummingbird capillary based liquid handling instrument (Digilab). Tests were started by the addition of 2 μl of 2.5-fold concentrated ATAD2 solution (25 nM=10 nM final concentration in the 5 μl assay volume) in aqueous assay buffer [50 mM HEPES pH 7.5, 50 mM potassium fluoride (KF), 100 mM sodium chloride (NaCl), 0.25 mM CHAPS, 0.05% bovine serum albumine (BSA) and 1 mM dithiothreitol (DTT)] to the compounds in the test plate with a Multidrop dispenser (Thermo-Fisher). Test plates were then incubated 10′ at 22° C., in order to allow pre-equilibration of putative compound-ATAD2 complexes. Subsequently, 3 μl of a 1.67-fold concentrated solution containing Ac-H4 peptide (83.5 nM=50 nM final concentration) and TR-FRET detection reagents [16.7 nM Anti-GST-XL665 (Cisbio), =10 nM final concentration and 4.17 nM Lance EU W-1024 Streptavidin Europium Chelate (Perkin-Elmer)=2.5 nM final concentration were dispensed into the plates.
The mixture was further incubated in the dark for 1 hour at 22° C. Finally the inhibition of the formation of ATAD2/Ac-H4 complexes was assessed by measurement of the resonance energy transfer from the Streptavidin-Eu-Chelate to the anti-GST-XL665 antibody present in the reaction. To this end, the fluorescence emissions at 622 nm and 665 nm after excitation at 337 nm were measured in a TR-FRET reader, e.g. a Rubystar or Pherastar (both from BMG Lab Technologies) or a Viewlux (Perkin-Elmer) and the ratio of the emissions at 665 nm and at 622 nm was taken as indicator for the amount of ATAD2/Ac-H4 complexes in equilibrium.
The data were normalized using two sets of control wells (16 each). The first accounted for 100% ATAD2/Ac-H4 binding (0% inhibition), and contained all reaction components but DMSO instead of inhibitors. The second represented 0% ATAD2/Ac-H4 binding (100% inhibition), and included all assay components except ATAD2. IC50 values were calculated by fitting the normalized inhibition data to a 4-parameter logistic equation using either Screener software (Genedata) or a Bayer-proprietary analysis software.

| SMILES | pIC50 |
| --- | --- |
| Cc1ccc([C@@H](C)NCc2ccc(-c3ccc(Cl)c(C(=O)N[C@@H](CO)Cc4ccc(C#N)cc4N)c3)o2)cc1 [Example 41, N-[(2R)-1-(2-amino-4-cyanophenyl)-3-hydroxypropan-2-yl]-2-chloro-5-[5-({[(1R)-1-(4-methylphenyl)ethyl]amino}methyl)-2-furyl]benzamide] | 6.12 |
| Cc1ccc([C@@H](C)NCc2ccc(-c3ccc(Cl)c(C(=O)N[C@@H](CO)Cc4cccc(C#N)c4)c3)o2)cc1 [Example 44, 2-chloro-N-[(2R)-1-(3-cyanophenyl)-3-hydroxypropan-2-yl]-5-[5-({[(1R)-1-(4-methylphenyl)ethyl]amino}methyl)-2-furyl]benzamide] | 5.80 |
| Cc1ccc([C@@H](C)NCc2ccc(-c3ccc(Cl)c(C(=O)N[C@@H](CO)Cc4ccncc4)c3)o2)cc1 [Example 47, 2-chloro-N-[(2R)-1-hydroxy-3-(pyridin-4-yl)propan-2-yl]-5-[5-({[(1R)-1-(4-methylphenyl)ethyl]amino}methyl)-2-furyl]benzamide] | 5.68 |
| Cc1ccc([C@@H](C)NCc2ccc(-c3ccc(Cl)c(C(=O)N[C@@H](CO)Cc4ccc(C(N)=O)cc4)c3)o2)cc1 [Example 48, N-[(2R)-1-(4-carbamoylphenyl)-3-hydroxypropan-2-yl]-2-chloro-5-[5-({[(1R)-1-(4-methylphenyl)ethyl]amino}methyl)-2-furyl]benzamide] | 5.97 |
| Cc1ccc([C@@H](C)NCc2ccc(-c3ccc(Cl)c(C(=O)N[C@H](Cc4ccc(C#N)cc4)CN4CCCC4)c3)o2)cc1 [Example 49, 2-chloro-N-[(2R)-1-(4-cyanophenyl)-3-(pyrrolidin-1-yl)propan-2-yl]-5-[5-({[(1R)-1-(4-methylphenyl)ethyl]amino}methyl)-2-furyl]benzamide] | 5.75 |
| COC(=O)c1ccc(C[C@H](CO)NC(=O)c2cc(-c3ccc(CN[C@H](C)c4ccc(C)cc4)o3)ccc2Cl)cc1 [Example 51, methyl 4-[(2R)-2-({2-chloro-5-[5-({[(1R)-1-(4-methylphenyl)ethyl]amino}methyl)-2-furyl]benzoyl}amino)-3-hydroxypropyl]benzoate] | 6.09 |
| Cc1ccc([C@@H](C)NCc2ccc(-c3ccc(Cl)c(C(=O)N[C@@H](CNC(=O)C4CCNCC4)Cc4ccc(C#N)cc4)c3)o2)cc1 [Example 56, N-[(2R)-2-({2-chloro-5-[5-({[(1R)-1-(4-methylphenyl)ethyl]amino}methyl)-2-furyl]benzoyl}amino)-3-(4-cyanophenyl)propyl]piperidine-4-carboxamide] | 6.29 |
| Cc1ccc([C@@H](C)NCc2ccc(-c3ccc(Cl)c(C(=O)N[C@@H](CNC(=O)CC4CCNCC4)Cc4ccc(C#N)cc4)c3)o2)cc1 [Example 57, 2-chloro-N-{(2R)-1-(4-cyanophenyl)-3-[(piperidin-4-ylacetyl)amino]propan-2-yl}-5-[5-({[(1R)-1-(4-methylphenyl)ethyl]amino}methyl)-2-furyl]benzamide] | 6.28 |
| Cc1ccc([C@@H](C)NCc2ccc(-c3ccc(Cl)c(C(=O)N[C@@H](CNC4CCN(C)CC4)Cc4ccc(C#N)cc4)c3)o2)cc1 [Example 58, 2-chloro-N-{(2R)-1-(4-cyanophenyl)-3-[(1-methylpiperidin-4-yl)amino]propan-2-yl}-5-[5-({[(1R)-1-(4-methylphenyl)ethyl]amino}methyl)-2-furyl]benzamide] | 6.76 |
| Cc1ccc([C@@H](C)NCc2ccc(-c3ccc(Cl)c(C(=O)N[C@@H](CNC4CCN(Cc5ccccc5)CC4)Cc4ccc(C#N)cc4)c3)o2)cc1 [Example 59] | 6.20 |
| CCN1CCC(NC[C@@H](Cc2ccc(C#N)cc2)NC(=O)c2cc(-c3ccc(CN[C@H](C)c4ccc(C)cc4)o3)ccc2Cl)CC1 [Example 62] | 6.48 |
| Cc1ccc([C@@H](C)NCc2ccc(-c3ccc(Cl)c(C(=O)N[C@@H](CNC4CCN(C(=O)OC(C)(C)C)CC4)Cc4ccc(C#N)cc4)c3)o2)cc1 [Example 64] | 5.93 |
| Cc1ccc([C@@H](C)NCc2ccc(-c3ccc(Cl)c(C(=O)N[C@@H](CNC4CCNCC4)Cc4ccc(C#N)cc4)c3)o2)cc1 [Example 67] | 6.58 |
| Cc1ccc([C@@H](C)NCc2ccc(-c3ccc(Cl)c(C(=O)N[C@@H](CNC4CCNCC4F)Cc4ccc(C#N)cc4)c3)o2)cc1 (some centres unmarked) [Example 73] | 6.88 |

Second part, the compound after the results:

| pIC50 | SMILES |
| --- | --- |
| 5.77 | CC(=O)NC[C@@H](Cc1ccc(C#N)cc1)NC(=O)c1cc(-c2ccc(CN[C@H](C)c3ccc(C)cc3)o2)ccc1Cl [Example 43, N-[(2R)-1-acetamido-3-(4-cyanophenyl)propan-2-yl]-2-chloro-5-[5-({[(1R)-1-(4-methylphenyl)ethyl]amino}methyl)-2-furyl]benzamide] |
| 5.74 | Cc1ccc([C@@H](C)NCc2ccc(-c3ccc(Cl)c(C(=O)N[C@H](Cc4ccc(C#N)cc4)[C@H](O)CC(C)C)c3)o2)cc1 [Example 45, 2-chloro-N-[(2R,3R)-1-(4-cyanophenyl)-3-hydroxy-5-methylhexan-2-yl]-5-[5-({[(1R)-1-(4-methylphenyl)ethyl]amino}methyl)-2-furyl]benzamide] |
| 5.96 | Cc1ccc([C@@H](C)NCc2ccc(-c3ccc(Cl)c(C(=O)N[C@H](Cc4ccc(C#N)cc4)[C@@H](O)CC(C)C)c3)o2)cc1 [Example 46, 2-chloro-N-[(2R,3S)-1-(4-cyanophenyl)-3-hydroxy-5-methylhexan-2-yl]-5-[5-({[(1R)-1-(4-methylphenyl)ethyl]amino}methyl)-2-furyl]benzamide] |
| 5.90 | COC(=O)C[C@@H](Cc1ccc(C#N)cc1)NC(=O)c1cc(-c2ccc(CN[C@H](C)c3ccc(C)cc3)o2)ccc1Cl [Example 50, methyl (3R)-3-({2-chloro-5-[5-({[(1R)-1-(4-methylphenyl)ethyl]amino}methyl)-2-furyl]benzoyl}amino)-4-(4-cyanophenyl)butanoate] |
| 6.15 | Cc1ccc([C@@H](C)NCc2ccc(-c3ccc(Cl)c(C(=O)N[C@@H](CNS(C)(=O)=O)Cc4ccc(C#N)cc4)c3)o2)cc1 [Example 54, 2-chloro-N-{(2R)-1-(4-cyanophenyl)-3-[(methylsulfonyl)amino]propan-2-yl}-5-[5-({[(1R)-1-(4-methylphenyl)ethyl]amino}methyl)-2-furyl]benzamide] |
| 6.56 | Cc1ccc([C@@H](C)NCc2ccc(-c3ccc(Cl)c(C(=O)N[C@@H](CNCC(=O)N4CCNCC4)Cc4ccc(C#N)cc4)c3)o2)cc1 [Example 55, 2-chloro-N-[(2R)-1-(4-cyanophenyl)-3-{[2-oxo-2-(piperazin-1-yl)ethyl]amino}propan-2-yl]-5-[5-({[(1R)-1-(4-methylphenyl)ethyl]amino}methyl)-2-furyl]benzamide] |
| 5.72 | Cc1ccc([C@@H](C)NCc2ccc(-c3ccc(Cl)c(C(=O)N[C@@H](CNCc4ccccc4)Cc4ccc(C#N)cc4)c3)o2)cc1 [Example 60] |
| 6.10 | Cc1ccc([C@@H](C)NCc2ccc(-c3ccc(Cl)c(C(=O)N[C@@H](CNCC(C)C)Cc4ccc(C#N)cc4)c3)o2)cc1 [Example 61] |
| 6.49 | Cc1ccc([C@@H](C)NCc2ccc(-c3ccc(Cl)c(C(=O)N[C@@H](CNC4CCN(CC(C)C)CC4)Cc4ccc(C#N)cc4)c3)o2)cc1 [Example 63] |
| 6.92 | Cc1ccc([C@@H](C)NCc2ccc(-c3ccc(Cl)c(C(=O)N[C@@H](CN[C@H]4CCCN(C)C4)Cc4ccc(C#N)cc4)c3)o2)cc1 [Example 65] |
| 6.95 | Cc1ccc([C@@H](C)NCc2ccc(-c3ccc(Cl)c(C(=O)N[C@@H](CNCC4CCNCC4)Cc4ccc(C#N)cc4)c3)o2)cc1 [Example 69] |
| 7.07 | Cc1ccc([C@@H](C)NCc2ccc(-c3ccc(Cl)c(C(=O)N[C@@H](CNCCC4CCNCC4)Cc4ccc(C#N)cc4)c3)o2)cc1 [Example 70] |

Source: patent US10654818B2, “Furane derivatives as inhibitors of ATAD2” (BAYER PHARMA AKTIENGESELLSCHAFT, priority 2015, dated 2020)
